In US4255431A, “Gastric acid secretion inhibiting substituted 2-(2-benzimidazolyl)-pyridines, pharmaceutical preparations containing same, and method for inhibiting gastric acid secretion” (priority 1978, dated 1981) one finds inhibition in vivo data, which are given here for 37 compounds.

Structures are written as SMILES.

The first assay relates to gastric acid secretion. In words: Inhibition of pentagastrin-stimulated gastric acid secretion in conscious gastric fistula dogs (intraduodenal administration). The format is in vivo. Conditions: Canis lupus familiaris, dose 0.5 μmol/kg, read-out: Effect, % inhibition (peak inhibitory effect on gastric acid secretion). As to the method: To determine the gastric acid secretion inhibitory properties, experiments have been performed on conscious dogs provided with gastric fistulas of conventional type and duodenal fistulas, the latter ones used for direct intraduodenal administration of the test compounds. After 18 hours starvation and deprivation of water the dogs were given a subcutaneous infusion of pentagastrin (1-4 nmol/kg, h) lasting for 6-7 hours. Gastric juice was collected in consecutive 30 minutes samples. An aliquot of each sample was titrated with 0.1 N NaOH to pH 7.0 for titrable acid concentration using an automatic titrator and pH-meter (Radiometer, Copenhagen, Denmark). Acid output was calculated as mmol H^+ /60 minutes. The percent inhibition compared to control experiments was calculated for each compound and the peak inhibitory effect is given in Table 2 below. […] In the test prior known compounds were compared with the compounds of the present invention as will be evident from the Table 2 below. The following gastric acid inhibiting effect data were obtained for a number of compounds tested according to the method described.
On to `COc1c(C)cnc(C[S+]([O-])c2nc3cc(C(C)=O)c(C)cc3[nH]2)c1C` (stereo not shown) [Example 11], for which the inhibition in vivo at 0.5 µmol/kg worked out at 70%.

`COC(=O)c1cc2nc([S+]([O-])Cc3nccc(OC)c3C)[nH]c2cc1C` (stereo not shown) [Example 16]: the inhibition in vivo at 0.5 µmol/kg was 65%.

Take `COC(=O)c1cc2nc([S+]([O-])Cc3ncc(C)c(OC)c3C)[nH]c2cc1C` (stereo not shown) [Example 17]: the inhibition in vivo at 0.5 µmol/kg turned out to be 90%.

With `COC(=O)c1ccc2[nH]c([S+]([O-])Cc3ncc(C)c(OC)c3C)nc2c1` (stereo not shown) [Example 20], the inhibition in vivo at 0.5 µmol/kg was determined as 65%.

With `COc1c(C)cnc(C[S+]([O-])c2nc3cc(C(C)=O)ccc3[nH]2)c1C` (stereo not shown) [Example 21], the inhibition in vivo at 0.5 µmol/kg worked out at 60%.

In the case of `COc1ccc2[nH]c([S+]([O-])Cc3ncc(C)c(OC)c3C)nc2c1` (stereo not shown) [Example 23], the inhibition in vivo at 0.5 µmol/kg came out at 65%.

For `COc1c(C)cnc(C[S+]([O-])c2nc3cc(C)ccc3[nH]2)c1C` (stereo not shown) [Example 24], the inhibition in vivo at 0.5 µmol/kg came out at 50%.

For `COc1c(C)cnc(C[S+]([O-])c2nc3ccccc3[nH]2)c1C` (stereo not shown) [Example 25], the inhibition in vivo at 0.5 µmol/kg stood at 60%.

Consider `COc1c(C)cnc(C[S+]([O-])c2nc3cc(Cl)ccc3[nH]2)c1C` (stereo not shown) [Example 26], for which the inhibition in vivo at 0.5 µmol/kg was 25%.

For the compound `COCCOc1ccnc(C[S+]([O-])c2nc3cc(C)ccc3[nH]2)c1` (stereo not shown) [Example 27], the inhibition in vivo at 0.5 µmol/kg stood at 30%.

As for `CCOC(=O)c1ccc2[nH]c([S+]([O-])Cc3ncc(C)c(OC)c3C)nc2c1` (stereo not shown) [Example 28], the inhibition in vivo at 0.5 µmol/kg amounted to 50%.

Take `COC(=O)c1ccc2[nH]c([S+]([O-])C(C)c3ncc(C)cc3C)nc2c1` (stereo not shown) [Example 29]: the inhibition in vivo at 0.5 µmol/kg came to 40%.

The same assay, now with this note: Canis lupus familiaris, dose 1 μmol/kg, read-out: Effect, % inhibition (peak inhibitory effect on gastric acid secretion).
Take `CC(=O)c1cc2nc([S+]([O-])Cc3nccc(C)c3C)[nH]c2cc1C` (stereo not shown) [Example 4]: the inhibition in vivo at 1 µmol/kg turned out to be 60%.

The assay is the same for the next values; noted with them: Canis lupus familiaris, dose 2 μmol/kg, read-out: Effect, % inhibition (peak inhibitory effect on gastric acid secretion).
For the compound `CC(=O)c1cc2nc([S+]([O-])Cc3cc(C)c(C)cn3)[nH]c2cc1C` (stereo not shown) [Example 1, 2-[2-(4,5-di-methyl)pyridylmethylsulfinyl]-(5-acetyl-6-methyl)benzimidazole], the inhibition in vivo at 2 µmol/kg stood at 90%.

On to `COC(=O)c1cc2nc([S+]([O-])Cc3cc(C)c(C)cn3)[nH]c2cc1C` (stereo not shown) [Example 2], for which the inhibition in vivo at 2 µmol/kg stood at 60%.

For `COC(=O)c1cc2nc([S+]([O-])Cc3nccc(C)c3C)[nH]c2cc1C` (stereo not shown) [Example 5], the inhibition in vivo at 2 µmol/kg was 90%.

In the case of `CC(=O)c1cc2nc([S+]([O-])Cc3ncc(C)cc3C)[nH]c2cc1C` (stereo not shown) [Example 7, 2-[2-(3,5-dimethyl)pyridylmethylsulfinyl]-(5-acetyl-6-methyl)benzimidazole], the inhibition in vivo at 2 µmol/kg came to 100%.

As for `COc1ccnc(C[S+]([O-])c2nc3cc(C(C)=O)c(C)cc3[nH]2)c1` (stereo not shown) [Example 9], the inhibition in vivo at 2 µmol/kg amounted to 95%.

Consider `COc1ccnc(C[S+]([O-])c2nc3c(C)cc(C)cc3[nH]2)c1` (stereo not shown) [Example 10], for which the inhibition in vivo at 2 µmol/kg was 40%.

Regarding `COC(=O)c1cc2nc([S+]([O-])Cc3ncc(C)cc3C)[nH]c2cc1C` (stereo not shown) [Example 12], the inhibition in vivo at 2 µmol/kg was determined as 70%.

In the case of `COC(=O)c1cc2nc([S+]([O-])Cc3cc(OC)ccn3)[nH]c2cc1C` (stereo not shown) [Example 14], the inhibition in vivo at 2 µmol/kg is 100%.

In the case of `COC(=O)c1ccc2[nH]c([S+]([O-])Cc3ncc(C)cc3C)nc2c1` (stereo not shown) [Example 19], the inhibition in vivo at 2 µmol/kg turned out to be 60%.

Staying with this assay, now noted: Canis lupus familiaris, dose 4 μmol/kg, read-out: Effect, % inhibition (peak inhibitory effect on gastric acid secretion).
As to `Cc1ccc(C[S+]([O-])c2nc3cc(C)ccc3[nH]2)nc1` (stereo not shown) [* 5-CH3, H, H, H, H, CH3, reference compound], the inhibition in vivo at 4 µmol/kg amounted to 50%.

`COC(=O)c1cc2nc([S+]([O-])Cc3ncccc3Br)[nH]c2cc1C` (stereo not shown) [* 5-COOCH3,6-CH3, H, Br, H, H, reference compound]: the inhibition in vivo at 4 µmol/kg was determined as 0%.

As to `COC(=O)c1cc2nc([S+]([O-])Cc3ccc(C)cn3)[nH]c2cc1C` (stereo not shown) [* 5-COOCH3,6-CH3, H, H, H, CH3, reference compound], the inhibition in vivo at 4 µmol/kg came out at 50%.

For the compound `COC(=O)c1ccc2[nH]c([S+]([O-])Cc3cc(C)c(C)cn3)nc2c1` (stereo not shown) [Example 3], the inhibition in vivo at 4 µmol/kg is 100%.

As for `Cc1cnc(C[S+]([O-])c2nc3c(C)cc(C)cc3[nH]2)c(C)c1` (stereo not shown) [Example 6], the inhibition in vivo at 4 µmol/kg was determined as 40%.

Regarding `CC(=O)c1cc2nc([S+]([O-])Cc3ncc(C)c(C)c3C)[nH]c2cc1C` (stereo not shown) [Example 8], the inhibition in vivo at 4 µmol/kg was determined as 100%.

With `COC(=O)c1cc2nc([S+]([O-])Cc3ncc(C)c(C)c3C)[nH]c2cc1C` (stereo not shown) [Example 13], the inhibition in vivo at 4 µmol/kg came to 80%.

For the compound `CCOc1ccnc(C[S+]([O-])c2nc3cc(C(=O)OC)c(C)cc3[nH]2)c1` (stereo not shown) [Example 15], the inhibition in vivo at 4 µmol/kg was found to be 75%.

Staying with this assay, now noted: Canis lupus familiaris, dose 8 μmol/kg, read-out: Effect, % inhibition (peak inhibitory effect on gastric acid secretion).
For the compound `CC(=O)c1cc2nc([S+]([O-])Cc3ccc(C)cn3)[nH]c2cc1C` (stereo not shown) [* 5-COCH3,6-CH3, H, H, H, CH3, reference compound], the inhibition in vivo at 8 µmol/kg came out at 80%.

The same assay, now with this note: Canis lupus familiaris, dose 12 μmol/kg, read-out: Effect, % inhibition (peak inhibitory effect on gastric acid secretion).
With `Cc1ccc(C[S+]([O-])c2nc3c(C)cc(C)cc3[nH]2)nc1` (stereo not shown) [* 4-CH3,6-CH3, H, H, H, CH3, reference compound], the inhibition in vivo at 12 µmol/kg stood at 50%.

Staying with this assay, now noted: Canis lupus familiaris, dose 20 μmol/kg, read-out: Effect, % inhibition (peak inhibitory effect on gastric acid secretion).
As for `CC(=O)c1cc2nc([S+]([O-])Cc3cc(C)ccn3)[nH]c2cc1C` (stereo not shown) [* 5-COCH3,6-CH3, H, H, CH3, H, reference compound], the inhibition in vivo at 20 µmol/kg was 30%.

`CCc1ccc(C[S+]([O-])c2nc3cc(C(C)=O)ccc3[nH]2)nc1` (stereo not shown) [* 5-COCH3, H, H, H, H, C2 H5, reference compound]: the inhibition in vivo at 20 µmol/kg stood at 40%.

Regarding `COC(=O)c1ccc2[nH]c([S+]([O-])Cc3ccc(C)cn3)nc2c1` (stereo not shown) [* 5-COOCH3, H, H, H, H, CH3, reference compound], the inhibition in vivo at 20 µmol/kg stood at 90%.

Consider `COC(=O)c1ccc2[nH]c([S+]([O-])Cc3ccccn3)nc2c1` (stereo not shown) [* 5-COOCH3, H, H, H, H, H, reference compound], for which the inhibition in vivo at 20 µmol/kg amounted to 50%.

In the case of `COc1ccc2[nH]c([S+]([O-])Cc3cc(C)ccn3)nc2c1` (stereo not shown) [* 5-OCH3, H, H, H, CH3, H, reference compound], the inhibition in vivo at 20 µmol/kg was found to be 10%.
